Laboratory results published in the supplement of paper PMC10307832.

Tests used:
Assay in all cases: relative viability (nuclei count vs DMSO), 5 days (fraction); higher = more cells survive
Cediranib + Palbociclib = compound: COc1cc2c(Oc3ccc4[nH]c(C)cc4c3F)ncnc2cc1OCCCN1CCCC1 [Cediranib] + CC(=O)c1c(C)c2cnc(Nc3ccc(N4CCNCC4)cn3)nc2n(C2CCCC2)c1=O [Palbociclib] (partner 0.5 µM)
How it was run: (§1)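 Relative viability divides the nuclei count in treated wells by that in vehicle wells. Lung cancer cell lines were seeded in 1536-well plates, dosed by pin tool the next day, and fixed and stained after 5 days in one step with final 0.05% Triton X-100, 1% formaldehyde and 1 ug/ml Hoechst. Dosing was a single drug or a fixed anchor-drug dose plus five library-drug doses (not always all listed) in √10 steps, and values are medians of duplicate plates imaged at 4×.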

Cediranib + Tozasertib = compound: COc1cc2c(Oc3ccc4[nH]c(C)cc4c3F)ncnc2cc1OCCCN1CCCC1 [Cediranib] + Cc1cc(Nc2cc(N3CCN(C)CC3)nc(Sc3ccc(NC(=O)C4CC4)cc3)n2)n[nH]1 [Tozasertib] (partner 0.1 µM)
How it was run: as §1

Decitabine + OSI-027 = compound: Nc1ncn([C@H]2C[C@H](O)[C@@H](CO)O2)c(=O)n1 [Decitabine] + COc1cccc2cc(-c3nc([C@H]4CC[C@H](C(=O)O)CC4)n4ncnc(N)c34)[nH]c12 [OSI-027] (partner 0.5 µM)
How it was run: as §1

[1] = compound: O=C(C[C@H]1NCCC[C@@H]1O)Cn1cnc2cc(Br)c(Cl)cc2c1=O (racemic) [Halofuginone] + N=C(N)NC(=N)NCCc1ccccc1 [Phenformin] (partner 250 µM)
How it was run: as §1

Row | Cell Line | relative viability (Cediranib + Palbociclib; first compound 0.04 µM) | relative viability (Cediranib + Palbociclib; first compound 0.1265 µM) | relative viability (Cediranib + Palbociclib; first compound 0.4 µM) | relative viability (Cediranib + Palbociclib; first compound 1.265 µM) | relative viability (Cediranib + Palbociclib; first compound 4 µM) | relative viability (Cediranib + Tozasertib; first compound 0.04 µM) | relative viability (Cediranib + Tozasertib; first compound 0.1265 µM) | relative viability (Cediranib + Tozasertib; first compound 0.4 µM) | relative viability (Cediranib + Tozasertib; first compound 1.265 µM) | relative viability (Cediranib + Tozasertib; first compound 4 µM) | relative viability (Decitabine + OSI-027; first compound 0.04 µM) | relative viability (Decitabine + OSI-027; first compound 0.1265 µM) | relative viability (Decitabine + OSI-027; first compound 0.4 µM) | relative viability (Decitabine + OSI-027; first compound 1.265 µM) | relative viability (Decitabine + OSI-027; first compound 4 µM) | relative viability ([1]; first compound 0.001 µM) | relative viability ([1]; first compound 0.003162 µM) | relative viability ([1]; first compound 0.01 µM) | relative viability ([1]; first compound 0.03162 µM) | relative viability ([1]; first compound 0.1 µM)
1 | NCI-H358 | 0.142 | 0.177 | 0.129 | 0.13 | 0.14 | 0.123 | 0.0968 | 0.0956 | 0.105 | 0.101 | 0.372 | 0.254 | 0.2 | 0.113 | 0.12 | 0.303 | 0.312 | 0.261 | 0.189 | 0.079
2 | SW 900 | 0.569 | 0.677 | 0.552 | 0.575 | 0.594 | 0.605 | 0.507 | 0.584 | 0.48 | 0.571 | 0.321 | 0.349 | 0.191 | 0.183 | 0.175 | 0.657 | 0.565 | 0.695 | 0.712 | 0.4
3 | NCI-H1355 | 0.413 | 0.426 | 0.367 | 0.39 | 0.423 | 0.548 | 0.684 | 0.482 | 0.564 | 0.492 | 0.352 | 0.398 | 0.289 | 0.288 | 0.267 | 0.456 | 0.503 | 0.429 | 0.441 | 0.407
4 | SK-LU-1 | 0.434 | 0.441 | 0.385 | 0.375 | 0.383 | 0.316 | 0.412 | 0.305 | 0.365 | 0.335 | 0.296 | 0.29 | 0.216 | 0.253 | 0.227 | 0.541 | 0.636 | 0.604 | 0.415 | 0.301
5 | NCI-H2228 | 0.648 | 1.02 | 0.752 | 0.615 | 0.787 | 0.26 | 0.351 | 0.237 | 0.207 | 0.203 | 0.418 | 0.431 | 0.205 | 0.103 | 0.207 | 0.32 | 0.332 | 0.307 | 0.338 | 0.172
6 | NCI-H2170 | 0.438 |  | 0.371 | 0.372 | 0.381 | 0.846 | 0.659 | 0.735 | 0.677 | 0.787 | 0.626 | 0.55 | 0.454 | 0.44 | 0.385 | 0.412 | 0.416 | 0.411 | 0.392 | 0.434
7 | NCI-H2347 | 0.497 | 0.417 | 0.4 | 0.4 | 0.417 | 0.532 | 0.385 | 0.596 | 0.539 | 0.485 | 0.382 | 0.478 | 0.34 | 0.402 | 0.383 | 0.535 | 0.521 | 0.53 | 0.477 | 0.317
8 | A-427 | 0.524 |  | 0.481 | 0.458 | 0.502 | 0.208 |  | 0.198 | 0.237 | 0.217 | 0.266 | 0.324 | 0.26 | 0.213 | 0.246 | 0.304 | 0.346 | 0.326 | 0.293 | 0.272
9 | HCC-366 | 0.451 | 0.404 | 0.366 | 0.411 | 0.262 | 0.114 | 0.0898 | 0.125 | 0.136 | 0.147 | 0.859 | 0.915 | 0.485 | 0.253 | 0.176 | 0.723 | 0.633 | 0.646 | 0.581 | 0.458
10 | HCC-78 | 0.55 |  | 0.507 | 0.53 | 0.592 | 0.448 | 0.474 | 0.512 | 0.54 | 0.441 | 0.344 | 0.365 | 0.345 | 0.353 | 0.344 | 0.7 | 0.667 | 0.697 | 0.739 | 0.623
11 | PC-14 | 0.601 | 0.627 | 0.487 | 0.439 | 0.328 | 0.711 | 0.651 | 0.585 | 0.61 | 0.483 | 0.148 | 0.425 | 0.16 | 0.113 | 0.105 | 0.563 | 0.553 | 0.565 | 0.606 | 0.281
12 | NCI-H2087 | 0.243 | 0.24 | 0.249 | 0.182 | 0.224 | 0.279 | 0.257 | 0.213 | 0.226 | 0.228 | 0.376 | 0.348 | 0.317 | 0.257 | 0.28 | 0.487 | 0.535 | 0.424 | 0.44 | 0.362
13 | HOP-62 | 0.482 | 0.517 | 0.409 | 0.426 | 0.486 | 0.366 | 0.457 | 0.388 | 0.379 | 0.352 | 0.613 | 0.601 | 0.272 | 0.23 | 0.167 | 0.663 | 0.707 | 0.676 | 0.634 | 0.603
14 | EKVX | 0.394 | 0.386 | 0.326 |  | 0.316 | 0.349 | 0.502 | 0.366 | 0.436 | 0.473 | 0.494 | 0.516 | 0.461 | 0.303 | 0.297 | 0.236 | 0.241 | 0.232 | 0.226 | 0.199
15 | EMC-BAC-2 | 0.519 | 0.562 | 0.529 | 0.51 | 0.499 | 0.284 | 0.238 | 0.278 | 0.286 | 0.3 | 0.39 | 0.4 | 0.286 | 0.344 | 0.363 | 0.615 | 0.546 | 0.503 | 0.521 | 0.338
16 | HARA | 0.249 | 0.32 | 0.298 | 0.301 | 0.211 | 0.125 |  | 0.107 | 0.118 | 0.123 | 0.251 | 0.257 | 0.164 | 0.112 | 0.111 | 0.486 | 0.465 | 0.487 | 0.48 | 0.363
17 | LU99A | 0.422 |  | 0.361 | 0.408 | 0.518 | 0.292 | 0.285 | 0.285 | 0.286 | 0.292 | 0.307 | 0.291 | 0.319 | 0.255 | 0.293 | 0.945 | 1.08 | 0.841 | 0.764 | 0.735
